Experimental data published in patent US20100113291A1 (CENTRE NATIONAL DE LA RECHERCHE SCIENTIFIQUE, priority 2006, published 2010).

Biological target: T1, MabA-C60V/S144L (Mycobacterium tuberculosis, UniProt P9WGT3, C60V/S144L)
T1 construct: made in house; host or cells: Escherichia coli
Type: binding
Details: read-out: KD for the cofactor

Work on `NC(=O)C1=CN([C@@H]2O[C@H](COP(=O)(O)OP(=O)(O)OC[C@H]3O[C@@H](n4cnc5c(N)ncnc54)[C@H](OP(=O)(O)O)[C@@H]3O)[C@@H](O)[C@H]2O)C=CC1` [NADPH] yielded a Kd of 11.2 µM.
